Earlier results in patent US20120316134A1, “ANAESTHETIC COMPOSITION” (JUROX PTY. LTD., priority 2000, published 2012).

Details: in vivo

## CC(=O)OCC(=O)[C@H]1CC[C@H]2[C@@H]3CC[C@H]4C[C@H](O)CC[C@]4(C)[C@H]3C(=O)C[C@]12C [alfadolone acetate, 21-acetoxy-3 α-hydroxy-5α-pregnane-11,20-dione]
  Anaesthetic potency relative to alfaxalone: half as potent
